The test system of one experiment is OVCAR-3. Briefly: Cytostatic activity against human OVCAR3 cells assessed as growth inhibition at 10 uM incubated for 48 hrs by sulforhodamine B assay relative to control. The format is functional. As to conditions: for inhibition of growth at 10 µM: OVCAR-3, 48 h, read-out: GI.
Another experiment has as its system RPMI-8226. Put plainly: Cytostatic activity against human RPMI8226 cells assessed as growth inhibition at 10 uM incubated for 48 hrs by sulforhodamine B assay relative to control. It counts as functional. As to conditions: for inhibition of growth at 10 µM: RPMI-8226, 48 h, read-out: GI. A general note: Sulforhodamine B stains cellular protein and so reports cell mass.

For another experiment, the species on record is Homo sapiens. Briefly: Inhibition of C-terminal His6-tagged human recombinat FTase expressed in Escherichia coli BL21 RIL (DE3) cells using Dansyl-GCVLS peptide and farnesyl pyrophosphate as substrate at 100 uM measured for 15 mins by fluorimetric analysis relative to control.
The next experiment relates to HCT-116. Briefly: Cytostatic activity against human HCT116 cells assessed as growth inhibition at 10 uM incubated for 48 hrs by sulforhodamine B assay relative to control. As to conditions: HCT-116, 48 h, read-out: GI. The format is functional.
A further experiment relates to KM12. Put plainly: Cytostatic activity against human KM12 cells assessed as growth inhibition at 10 uM incubated for 48 hrs by sulforhodamine B assay relative to control. It counts as functional. The note with it: for inhibition of growth at 10 µM: KM12, 48 h, read-out: GI.
A further experiment deals with SR. Briefly: Cytostatic activity against human SR cells assessed as growth inhibition at 10 uM incubated for 48 hrs by sulforhodamine B assay relative to control. As to conditions: for inhibition of growth at 10 µM: read-out: GI. It counts as functional.
The test system of the next experiment is CCRF-CEM. Put plainly: Cytostatic activity against human CCRF-CEM cells assessed as growth inhibition at 10 uM incubated for 48 hrs by sulforhodamine B assay relative to control. It counts as functional. The note with it: for inhibition of growth at 10 µM: read-out: GI.
Another experiment has as its system NCI-H522. Put plainly: Cytostatic activity against human NCI-H522 cells assessed as growth inhibition at 10 uM incubated for 48 hrs by sulforhodamine B assay relative to control. The format is functional. As to conditions: NCI-H522, 48 h, read-out: GI.
A short description of experiment [1]: Inhibition of C-terminal His6-tagged human recombinat FTase expressed in Escherichia coli BL21 RIL (DE3) cells using Dansyl-GCVLS peptide and farnesyl pyrophosphate as substrate measured for 15 mins by fluorimetric analysis.
The test system of a further experiment is K562. Put plainly: Cytostatic activity against human K562 cells assessed as growth inhibition at 10 uM incubated for 48 hrs by sulforhodamine B assay relative to control. As to conditions: K562, 48 h, read-out: GI. The format is functional.
Experiment [2] relates to SW-620. Put plainly: Cytostatic activity against human SW620 cells assessed as growth inhibition at 10 uM incubated for 48 hrs by sulforhodamine B assay relative to control. The note with it: for inhibition of growth at 10 µM: SW-620, 48 h, read-out: GI. It counts as functional.
The next experiment concerns LOX IMVI. Put plainly: Cytostatic activity against human LOXIMVI cells assessed as growth inhibition at 10 uM incubated for 48 hrs by sulforhodamine B assay relative to control. As to conditions: for inhibition of growth at 10 µM: read-out: GI. The format is functional.
Another experiment concerns MCF7. Put plainly: Cytostatic activity against human MCF7 cells assessed as growth inhibition at 10 uM incubated for 48 hrs by sulforhodamine B assay relative to control. It counts as functional. The note with it: MCF7, 48 h, read-out: GI.
Experiment [3] deals with SW-620. Briefly: Cytotoxicity against human SW620 cells assessed as growth inhibition of preexisting tumor cells at 10 uM incubated for 48 hrs by sulforhodamine B assay relative to control. As to conditions: SW-620, 48 h, read-out: GI. It counts as functional.

Active and inactive are the calls of the source. The calls are words filed in the database; no cut-off is given here.

As usually defined, the inhibition is how much of the control response was suppressed. What is called IC50 is the concentration needed to halve the response being measured. As for `O=C(/C=C/c1ccc(Cl)cc1Cl)c1ccc(Cl)c(Cl)c1`, the “growth inhibition (GI)” value in the experiment with OVCAR-3, in the experiment on CCRF-CEM, with SW-620 [2] and with LOX IMVI was “inactive” throughout. The inhibition of growth at 10 µM with RPMI-8226 was 5.4%; with HCT-116, 13.9%; in the experiment on KM12, 0.3%; in the experiment on SR, 2.8%; in the experiment on NCI-H522, 11.4%; in the experiment with K562 it was 2.4%. Further, the inhibition of growth at 10 µM in the experiment with MCF7 stood at 28.3%. Besides, the inhibition in the experiment filed under Homo sapiens turned out to be 74%. In addition, the IC50 in experiment [1] stood at 8.7 µM.
As for `O=C(/C=C/c1ccc(Cl)c(Cl)c1)c1ccc(Cl)c(Cl)c1`, the “growth inhibition (GI)” value in the experiment on OVCAR-3, in the experiment on KM12, in the experiment on SW-620 [2] and with LOX IMVI was “inactive” each time. The inhibition of growth at 10 µM with RPMI-8226 was 7.2%; in the experiment on HCT-116, 6.1%; in the experiment on SR, 6.1%; with CCRF-CEM it was 3.7%; in the experiment with NCI-H522, 8.1%; with K562, 9.7%. In addition, the inhibition of growth at 10 µM in the experiment on MCF7 amounted to 14.2%. Further, the inhibition in the experiment filed under Homo sapiens amounted to 60%. Further, the IC50 in experiment [1] amounted to 96.6 µM.
On to `O=C(/C=C/c1ccc(Cl)nc1)c1ccc(Cl)cc1Cl`, for which the inhibition of growth at 10 µM in the experiment on OVCAR-3 was determined as 21.5%; in the experiment on HCT-116, 63.3%; with KM12 it was 23.5%; in the experiment with CCRF-CEM it was 93%; in the experiment with NCI-H522 it was 61.3%; with SW-620 [3], 33.2%. Also, the inhibition of growth at 10 µM is 92.3% in the experiment on K562, 100% with SW-620 [2], 93.5% in the experiment on LOX IMVI and 82.9% in the experiment with MCF7. Also, the inhibition in the experiment filed under Homo sapiens was 53%.
As for `O=C(/C=C/c1cccs1)c1ccc(Cl)c(Cl)c1`, the “growth inhibition (GI)” value in the experiment with OVCAR-3, in the experiment on RPMI-8226, in the experiment with SR, in the experiment on CCRF-CEM and with LOX IMVI was “inactive” throughout. Moreover, the inhibition in the experiment listed under Homo sapiens stood at 98%. The inhibition of growth at 10 µM with HCT-116 turned out to be 2.2%; in the experiment with KM12, 2.8%; in the experiment with NCI-H522, 8.6%; in the experiment on K562 it was 1.7%; in the experiment on SW-620 [2], 5.5%; in the experiment with MCF7 it was 72.5%. In addition, the IC50 in [1] turned out to be 7.4 µM.
Turning to `O=C(/C=C/c1ccc(Cl)c(Cl)c1)c1cccs1`, the inhibition of growth at 10 µM amounted to 6.8% with OVCAR-3; 66.9% in the experiment with RPMI-8226; 39.8% with HCT-116; 15.4% with KM12; 78% in the experiment with SR; 31.3% in the experiment on CCRF-CEM. The inhibition of growth at 10 µM in the experiment with NCI-H522 was determined as 24.7%; in the experiment with K562 it was 71.6%; with SW-620 [2], 29.6%; with LOX IMVI it was 45.7%; in the experiment on MCF7, 87.1%. In addition, the inhibition in the experiment filed under Homo sapiens turned out to be 47%.
